The source of these data is patent US20150004110A1, “NOVEL ANTI-AGING AND DEPIGMENTING COSMETIC COMPOSITIONS” (DIVERCHIM, priority 2011, published 2015).

The test system of this assay is collagen VII. Briefly: Staining and immunolabelling of skin explant sections: collagen VII. It counts as cell-based, human. The note with it: treated skin explant sections. The method, then: 1. Preparation of the explants • During abdominoplasty of a person, 45 skin explants were prepared. The explants were put in BEM medium (BIO-EC's Explants Medium) for survival at 37° C. in humid atmosphere, enriched with 5% CO2.
2. Application of the products • The solutions are prepared in DMSO from pure products, in order to obtain final concentrations of […] by incorporating an identical volume of 10 μl in each well and for each treatment. The treatment was carried out in the survival medium on days 0, 1, 2, 5 and 7.
3. Taking samples • On D0, the 3 explants of batch TO were taken and each explant was cut in two. One part was fixed in buffered formol for observation of the general morphology. The other was frozen and stored at −80° C. • On D5 and D9, 3 explants from each batch were taken and treated in the same way.
4. Histological treatment • After fixation for 48 hours in buffered formol, the samples were dehydrated and embedded in paraffin using a Leica 1020 automatic dehydrator. They were embedded according to procedure MO-H-153 using a Leica EG 1160 coating station. Sections of 5 μm were prepared according to procedure MO-H-173 using a Minot-type microtome, Leica RM 2125 and mounted on Superfrost® histological glass slides.
6. Staining and immunolabelling
Immunolabelling will be carried out on sections with the appropriate antibody. […]

Each structure is given as a SMILES string.

For the compound `Oc1ccccc1CCOc1ccc(F)cc1` [Compound 1, 2-[2-(4-fluoro-phenoxy)-ethyl]-phenol], the “Collagen VII along the dermal-epidermal junction” value was “moderate overexpression”.
